A word on the IC50: it is the concentration that gives 50% inhibition. By inhibition is commonly meant how much of the control response was suppressed.

The values below come from patent publication US20140357584A1 (priority 2011, published 2014).

In data set [1] the test system is HIV-1 strain Bal: M-Tropic. Put plainly: Human PBMC assay, p24 antigen ELISA, HIV1 clinical strain Bal. Format: cell-based. The text has this:
(§1) Anti-HIV Evaluation Using Four HIV1 Clinical Strains.
(§2) Four HIV1 clinical strains, BAL and SF162 (M-tropic), […], and 89.6 (a dual tropic strain), were used in the current study. Here a standardized human peripheral blood mononuclear cell culture (PBMC) assay was used to determine the compound susceptibility of these HIV-1 strains. AZT, an anti-HIV drug in clinical use, was used as a positive control. Briefly, human PBMCs were collected from a donor and stimulated for seven days. The preparations (compound or fraction) were then added to the cultured cells at a wide range of concentrations, and the different HIV-1 strains were used to challenge the cultured cells using 96-well plates. After seven-days of incubation, the supernatants were collected and the HIV p24 levels of the infected cells were determined using a p24 antigen ELISA. The ICsos were calculated by comparing p24 antigen values for the compounds (fraction)-containing wells with those for no drug control wells. In these experiments, AZT was used as positive controls.
On the technique in general: In an ELISA, binding on a coated surface is turned into a signal by an enzyme label.

The test system of data set [2] is HIV-1 strain SF162: M-Tropic. Put plainly: Human PBMC assay, p24 antigen ELISA, HIV1 clinical strain SF162. In kind it is cell-based.
Excerpt: as §1, §2

Data set [3] deals with HIV-1 strain Lav.04: T-Tropic. Put plainly: Human PBMC assay, p24 antigen ELISA, HIV1 clinical strain Lav.04. Format: cell-based.
Excerpt: as §1, §2

For data set [4], the system named is HIV-1 strain 89.6: Dual-Tropic. Put plainly: Human PBMC assay, p24 antigen ELISA, HIV1 clinical strain 89.6. Format: cell-based.
Excerpt: as §1, §2

The test system of another data set is four HIV-1 strains. In words: Human PBMC assay, p24 antigen ELISA, summary over the four HIV-1 strains. The conditions noted are these: read-out: IC50, depending on the strains. In kind it is cell-based.
Excerpt: Justiprocumins B (2) and patentiflorin A (3) were further evaluated against a broad spectrum of HIV strains including four HIV1 clinical strains, BAL and SF162 (M-tropic), […], and 89.6 (a dual tropic strain). In these experiments, AZT was used as a positive control. […] It is clear that justiprocumin B (2) and patentification A (3), like AZT, could inhibit the particle production of all four HIV-1 strains effectively in a dose-dependent manner.
as §1, §2

In another data set the test system is HIV replication. In words: Anti-HIV Post-Entry protocol (HIV/HA pseudovirions, luciferase reporter, A549 target cells). Format: cell-based. As to conditions: for inhibition at 1 µg/mL: Human immunodeficiency virus 1, A549, read-out: inhibition of HIV replication. On the technique in general: Reporter assays use an easily measured gene product as a stand-in for the process of interest.

For another data set, the system named is Hela cell line. Put plainly: Evaluation of toxicity (CellTiter 96), Hela. The conditions noted are these: at a concentration of 10 μg/mL. Format: cell-based. As to the method:
(§3) Approximately 5000 cells seeded in a 96-well tissue culture plate in DMEM supplemented with FBS and penicillin/streptomycin. DMSO alone or compounds in 100% DMSO were added on the following day at appropriate concentrations and incubated with cells at 37° C. in 5% CO2 for 24 hr. After 24 hr, all media were removed and replaced with 100 μL fresh complete DMEM. After 48 hr post initial addition of DMSO or compound, 20 μL of CellTiter 96 Aqueous One Solution was added per well. After gentle mixing, plates were incubated at 37° C. in 5% CO2 for 4 hr. 25 μL of a 10% SDS solution was added per well and plates were stored at room temperature for approximately 12 hr. Absorbance was then measured at 450 nm using a plate reader.

The next data set has as its system A549 cell line. Put plainly: Evaluation of toxicity (CellTiter 96), A549. Format: cell-based, human. As to conditions: at a concentration of 10 μg/mL. How it is done:
as §3

The test system of data set [5] is HIV reverse transcription. Put plainly: HIV gene expression of the R/U5 and U5/gag transcripts. In kind it is cell-based.
Where [6] appears, read: Human immunodeficiency virus 1, BAL, PBMC, 168 h, read-out: IC50 Bal: M-Tropic, human PBMC, p24 antigen, seven days.
Where [7] appears, read: Human immunodeficiency virus 1, PBMC, 168 h, read-out: IC50 SF162: M-Tropic, human PBMC, p24 antigen, seven days.
Where [8] appears, read: Human immunodeficiency virus 1, PBMC, 168 h, read-out: IC50 Lav.04: T-Tropic, human PBMC, p24 antigen, seven days.
[9] abbreviates: Human immunodeficiency virus 1, PBMC, 168 h, read-out: IC50 89.6: Dual-Tropic, human PBMC, p24 antigen, seven days.
Where [10] appears, read: Human immunodeficiency virus 1, PBMC.

Read-outs that look alike come from different tables or passages of the source. A value given as a limit tells only on which side of the number the result lay.

For `COc1cc2c(O[C@@H]3O[C@H](C)[C@@H](O[C@@H]4O[C@H](CO)[C@@H](O)[C@H](O)[C@H]4O)[C@H](O)[C@H]3OC(C)=O)c3c(c(-c4ccc5c(c4)OCO5)c2cc1OC)C(=O)OC3` [Justiprocumin B (2), 9-(1,3-benzodioxol-5-yl)-4-[(2-O-acetyl-6-deoxy-4-O-β-D-glucopyranosyl-β-D-glucopyranosyl)oxy]-6,7-dimethoxy-naphtho[2,3-c]furan-1(3H)-one], the concentration for half-maximal inhibition (IC50) in [1] (setting [6]) is 0.015 µM; in data set [2] (setting [7]), 0.014 µM; in [3] (setting [8]), 0.021 µM; in [4] (setting [9]), 0.015 µM; in the data set on four HIV-1 strains (setting [10]), 0.014 to 0.021 µM. Further, the inhibition at 1 µg/mL with HIV replication is more than 100%.

Take `Cc1cn([C@H]2C[C@H](N=[N+]=[N-])[C@@H](CO)O2)c(=O)[nH]c1=O` [AZT, zidovudine, reference compound]: the half-inhibitory concentration (IC50) in [1] (Human immunodeficiency virus 1, BAL, PBMC, 168 h, human PBMC, p24 antigen, seven days, read-out: IC50 Bal: M-Tropic) is 0.077 µM; in data set [2] (Human immunodeficiency virus 1, PBMC, 168 h, human PBMC, p24 antigen, seven days, read-out: IC50 SF162: M-Tropic), 0.085 µM; in data set [3] (Human immunodeficiency virus 1, PBMC, 168 h, human PBMC, p24 antigen, seven days, read-out: IC50 Lav.04: T-Tropic) it was 0.079 µM; in data set [4] (Human immunodeficiency virus 1, PBMC, 168 h, human PBMC, p24 antigen, seven days, read-out: IC50 89.6: Dual-Tropic) it was 0.095 µM; with four HIV-1 strains (Human immunodeficiency virus 1, range over four HIV-1 strains, human PBMC) it was 0.077 to 0.095 µM.

Turning to `COc1cc2c(O[C@@H]3O[C@H](C)[C@@H](O[C@@H]4O[C@H](CO)[C@@H](O)[C@H](O)[C@H]4O)[C@H](OC(C)=O)[C@H]3O)c3c(c(-c4ccc5c(c4)OCO5)c2cc1OC)C(=O)OC3` [Justiprocumin A (1), 9-(1,3-benzodioxol-5-yl)-4-[(3-O-acetyl-6-deoxy-4-O-β-D-glucopyranosyl-β-D-glucopyranosyl)oxy]-6,7-dimethoxy-naphtho[2,3-c]furan-1(3H)-one], in the data set on HIV replication, the inhibition at 1 µg/mL is more than 100%.

As to `COc1cc2c(OC3OC(C)C(O)C(O)C3O)c3c(c(-c4ccc5c(c4)OCO5)c2cc1OC)C(=O)OC3` (stereo not shown) [Patentiflorin A (3), patentiflorin A], the half-inhibitory concentration (IC50) stood at 0.03 µM in [1] (setting [6]); 0.032 µM in [1] (read-out: IC50 Bal: M-Tropic, human PBMC, p24 antigen, seven days, listed as Synthetic patentiflorin A (3)); 0.037 µM in data set [2] (setting [7]); 0.03 µM in data set [2] (read-out: IC50 SF162: M-Tropic, human PBMC, p24 antigen, seven days, listed as Synthetic patentiflorin A (3)); 0.024 µM in data set [3] (setting [8]); 0.032 µM in data set [3] (read-out: IC50 Lav.04: T-Tropic, human PBMC, p24 antigen, seven days, listed as Synthetic patentiflorin A (3)). For the same compound, the IC50 in data set [4] (setting [9]) is 0.032 µM; in data set [4] (read-out: IC50 89.6: Dual-Tropic, human PBMC, p24 antigen, seven days, listed as Synthetic patentiflorin A (3)) it was 0.031 µM; in the data set on four HIV-1 strains (setting [10]), 0.024 to 0.037 µM; in the data set with HIV replication (Human immunodeficiency virus 1, A549, read-out: anti-HIV activity IC50), less than 0.01 µg/mL. Besides, the “cytotoxicity against Hela” value with Hela cell line is recorded as “no apparent cytotoxicity”. Besides, in the data set on A549 cell line, the “cytotoxicity against A549” value is “no apparent cytotoxicity”. Further, in data set [5], the “inhibition of HIV reverse transcription (R/U5 and U5/gag transcripts)” value is recorded as “effective inhibitor of HIV reverse transcription”.
